The text below walks through data of paper PMC9574513 (The Journal of Biological Chemistry, 2022).

One test has as its target T1, PtKCS2 (Populus trichocarpa, UniProt A0A2K1YQQ5).
T1 sequence (A0A2K1YQQ5 1-524): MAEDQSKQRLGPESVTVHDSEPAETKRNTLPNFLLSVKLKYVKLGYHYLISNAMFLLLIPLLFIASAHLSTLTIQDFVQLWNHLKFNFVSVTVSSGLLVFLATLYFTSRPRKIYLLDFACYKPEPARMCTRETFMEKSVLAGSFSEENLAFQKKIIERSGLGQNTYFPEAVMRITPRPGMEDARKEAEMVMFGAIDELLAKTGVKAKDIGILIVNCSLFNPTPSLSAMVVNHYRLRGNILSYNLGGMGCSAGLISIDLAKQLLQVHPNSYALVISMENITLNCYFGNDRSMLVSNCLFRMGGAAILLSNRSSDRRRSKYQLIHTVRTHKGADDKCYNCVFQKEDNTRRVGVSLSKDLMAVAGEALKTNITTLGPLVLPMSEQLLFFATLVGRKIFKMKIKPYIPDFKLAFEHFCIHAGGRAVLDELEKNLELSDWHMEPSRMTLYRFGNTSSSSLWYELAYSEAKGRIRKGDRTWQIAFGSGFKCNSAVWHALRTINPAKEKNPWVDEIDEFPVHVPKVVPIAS
The format is cell-based. Conditions: inhibition; 30 °C, 4 days, yeast culture.

The target in a further test is T2, PtKCS4 (Populus trichocarpa, UniProt U7E0F5).
T2 sequence (U7E0F5 1-524): T1 sequence (A0A2K1YQQ5 1-524) with S94C, K137T, V139T, F144C, C283R
It is filed as cell-based. Conditions: inhibition; 30 °C, 4 days, yeast culture.

Where a chain is given by its changes, count along the chain named.

As to `CCc1cccc(CC)c1N(COC)C(=O)CCl` [alachlor], the “proportion of total VLC-FAMEs vs uninhibited control at 2 μM” value at PtKCS2 is “whereas alachlor and anilofos slightly reduced activity”; at PtKCS4 it was “whereas alachlor and anilofos slightly reduced activity”.
For the compound `CC(C)N(C(=O)COc1nnc(C(F)(F)F)s1)c1ccc(F)cc1` [flufenacet], the “proportion of total VLC-FAMEs vs uninhibited control at 2 μM” value at PtKCS2 is “Flufenacet and fentrazamide had the greatest effect on reducing VLCFA elongation in all three KCSs”; at PtKCS4, “Flufenacet and fentrazamide had the greatest effect on reducing VLCFA elongation in all three KCSs”.
